# Experimental data as given in patent US8497245B2, “Trypsin-like serine protease inhibitors, their preparation and use as selective inhibitors of the clotting factors IIa and Xa” (The Medicines Company (Leipzig) GmbH, priority 2010, dated 2013).
# Target: T1, Human plasma kallikrein (h PK) (Homo sapiens, UniProt P03952)
# T1 construct: purchased Enzyme Research Laboratories
# Test: Inhibition of human plasma kallikrein (reference enzyme)
# Assay type: biochemical
# Conditions: S2302 substrate
# Procedure: (§1) The inhibitory effect against the individual purified enzymes was determined in analogy to a previously disclosed method (Stürzebecher et al., J. Med. Chem., 40, 3091-3099 (1997)).
# (§2) The release of p-nitroaniline (p-NA, the chromogenic product of the proteolytic activity), was determined by change in absorbance at 405 nm. The equilibrium rates were used to calculate the inhibitor/enzyme dissociation constant (Ki values) by parameter fitting in accordance with the rate equation for competitive inhibition using GraFit (version 4 from Erithacus). The results are reported as Ki values (nanomolar) in table 7 and are the average of at least three determinations.
# (§3) Dissociation constants were calculated as described herein.
# T1 sequence (P03952 391-638 limits assumed): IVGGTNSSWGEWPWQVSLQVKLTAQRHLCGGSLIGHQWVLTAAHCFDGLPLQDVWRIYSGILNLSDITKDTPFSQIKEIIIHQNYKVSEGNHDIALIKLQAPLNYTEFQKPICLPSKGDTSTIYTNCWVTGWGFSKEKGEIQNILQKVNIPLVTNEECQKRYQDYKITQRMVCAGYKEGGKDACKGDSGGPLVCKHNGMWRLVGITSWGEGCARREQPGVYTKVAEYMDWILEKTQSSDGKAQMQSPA
# T1 sequence (P03952 20-390 partner limits assumed): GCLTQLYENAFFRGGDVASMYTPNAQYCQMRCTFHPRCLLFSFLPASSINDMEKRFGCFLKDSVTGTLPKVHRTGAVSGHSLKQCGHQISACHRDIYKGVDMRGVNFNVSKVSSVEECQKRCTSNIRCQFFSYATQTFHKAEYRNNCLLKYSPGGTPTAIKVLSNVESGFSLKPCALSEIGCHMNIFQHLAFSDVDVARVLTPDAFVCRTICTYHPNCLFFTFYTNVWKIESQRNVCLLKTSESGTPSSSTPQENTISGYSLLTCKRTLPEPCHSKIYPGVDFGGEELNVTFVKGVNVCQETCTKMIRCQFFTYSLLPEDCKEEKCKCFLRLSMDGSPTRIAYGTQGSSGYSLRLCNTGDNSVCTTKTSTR
row,Ki,Compound
1,1.2 µM,O=C(NCc1cc(Cl)ccc1-n1cnnn1)[C@@H]1C[C@H](O)CN1C(=O)[C@@H](CCC(=O)N1CCOCC1)NS(=O)(=O)Cc1ccccc1 [Compound 2.21]
2,7.2 µM,NCc1ccc(Cl)cc1CNC(=O)[C@@H]1CCCCN1C(=O)[C@@H](CCC(=O)N1CCOCC1)NS(=O)(=O)Cc1ccccc1 [Compound 2.15]

# Target: T2, Human tissue-type plasminogen activator (h t-PA) (Homo sapiens, UniProt P00750)
# T2 construct: purchased Boehringer Ingelheim Actilyse
# T2 sequence (P00750 36-562): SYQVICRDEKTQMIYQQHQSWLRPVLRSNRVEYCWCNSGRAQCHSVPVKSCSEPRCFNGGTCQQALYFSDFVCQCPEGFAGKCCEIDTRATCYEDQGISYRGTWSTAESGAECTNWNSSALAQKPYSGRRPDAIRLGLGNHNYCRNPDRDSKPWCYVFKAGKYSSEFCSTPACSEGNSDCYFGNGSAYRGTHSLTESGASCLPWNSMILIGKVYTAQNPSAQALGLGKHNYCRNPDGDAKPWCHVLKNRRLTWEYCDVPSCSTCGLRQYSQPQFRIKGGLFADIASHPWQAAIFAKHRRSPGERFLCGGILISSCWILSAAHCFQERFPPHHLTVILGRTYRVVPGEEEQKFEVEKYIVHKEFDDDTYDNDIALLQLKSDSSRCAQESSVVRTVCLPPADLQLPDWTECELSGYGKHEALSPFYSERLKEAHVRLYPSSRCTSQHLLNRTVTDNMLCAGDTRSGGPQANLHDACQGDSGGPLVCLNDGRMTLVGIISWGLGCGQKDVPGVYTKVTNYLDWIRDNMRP
# Test: Inhibition of human tissue-type plasminogen activator (reference enzyme)
# Assay type: biochemical
# Conditions: Pefachrome tPA substrate; read-out: Ki h t-PA
# Procedure: The equilibrium rates were used to calculate the inhibitor/enzyme dissociation constant (Ki values) by parameter fitting in accordance with the rate equation for competitive inhibition using GraFit (version 4 from Erithacus).
# as §3
row,Ki,Compound
1,> 20 µM,O=C(NCc1cc(Cl)ccc1-n1cnnn1)[C@@H]1C[C@H](O)CN1C(=O)[C@@H](CCC(=O)N1CCOCC1)NS(=O)(=O)Cc1ccccc1 [Compound 2.21]
2,> 10 µM,NCc1ccc(Cl)cc1CNC(=O)[C@@H]1CCCCN1C(=O)[C@@H](CCC(=O)N1CCOCC1)NS(=O)(=O)Cc1ccccc1 [Compound 2.15]

# Target: T3, Human plasmin (h plasmin) (Homo sapiens, UniProt P00747)
# T3 construct: purchased Calbiochem
# T3 sequence (P00747 581-810 limits assumed): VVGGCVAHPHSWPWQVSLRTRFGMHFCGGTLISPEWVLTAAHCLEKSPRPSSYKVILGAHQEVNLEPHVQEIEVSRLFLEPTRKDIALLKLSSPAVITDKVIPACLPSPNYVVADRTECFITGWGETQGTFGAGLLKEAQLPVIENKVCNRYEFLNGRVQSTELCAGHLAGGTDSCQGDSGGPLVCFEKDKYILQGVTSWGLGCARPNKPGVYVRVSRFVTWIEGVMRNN
# T3 sequence (P00747 97-580 partner limits assumed): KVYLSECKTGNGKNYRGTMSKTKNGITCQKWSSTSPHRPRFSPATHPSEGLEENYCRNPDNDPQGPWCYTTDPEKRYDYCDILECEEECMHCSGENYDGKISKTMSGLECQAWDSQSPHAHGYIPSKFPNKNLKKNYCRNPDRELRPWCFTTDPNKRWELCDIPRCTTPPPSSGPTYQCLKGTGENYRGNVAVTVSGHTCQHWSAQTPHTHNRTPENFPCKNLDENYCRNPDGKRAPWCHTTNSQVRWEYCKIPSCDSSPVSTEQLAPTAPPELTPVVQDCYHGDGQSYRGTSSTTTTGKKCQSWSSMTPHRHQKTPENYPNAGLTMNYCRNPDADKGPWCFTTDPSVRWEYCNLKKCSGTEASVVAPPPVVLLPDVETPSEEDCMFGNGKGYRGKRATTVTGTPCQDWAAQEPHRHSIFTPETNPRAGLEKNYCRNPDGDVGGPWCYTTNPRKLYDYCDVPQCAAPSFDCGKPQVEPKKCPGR
# Test: Inhibition of human plasmin (reference enzyme)
# Assay type: biochemical
# Conditions: Chromozym PL substrate
# Procedure: as §1, §2, §3
row,Ki,Compound
1,10.8 µM,O=C(NCc1cc(Cl)ccc1-n1cnnn1)[C@@H]1C[C@H](O)CN1C(=O)[C@@H](CCC(=O)N1CCOCC1)NS(=O)(=O)Cc1ccccc1 [Compound 2.21]
2,> 5 µM,NCc1ccc(Cl)cc1CNC(=O)[C@@H]1CCCCN1C(=O)[C@@H](CCC(=O)N1CCOCC1)NS(=O)(=O)Cc1ccccc1 [Compound 2.15]

# Target: T4, human factor IIa (human alpha-thrombin) (Homo sapiens, UniProt P00734)
# T4 construct: human alpha-thrombin from Enzyme Research Laboratories; purchased Enzyme Research Laboratories
# Test: Inhibition constants for human factor IIa, chromogenic substrate assay
# Assay type: biochemical
# Conditions: 25° C., Pefachrome tPA substrate, average of at least three determinations; read-out: Ki h FIIa
# Procedure: as §1
# (§4) 200 μL of TBS (0.05 M trishydroxymethylaminomethane; 0.154 M NaCl, 2% ethanol, pH 8.0)
# as §2
row,Ki,Compound
1,0.159 µM,O=C(NCc1cc(Cl)ccc1-n1cnnn1)[C@@H]1C[C@H](O)CN1C(=O)[C@@H](CCC(=O)N1CCOCC1)NS(=O)(=O)Cc1ccccc1 [Compound 2.21]
2,0.0007 µM,NCc1ccc(Cl)cc1CNC(=O)[C@@H]1CCCCN1C(=O)[C@@H](CCC(=O)N1CCOCC1)NS(=O)(=O)Cc1ccccc1 [Compound 2.15]

# Target: T5, Human Activated Protein C (h aPC) (Homo sapiens, UniProt P04070)
# T5 construct: purchased Enzyme Research Laboratories
# T5 sequence (P04070 212-450 limits assumed): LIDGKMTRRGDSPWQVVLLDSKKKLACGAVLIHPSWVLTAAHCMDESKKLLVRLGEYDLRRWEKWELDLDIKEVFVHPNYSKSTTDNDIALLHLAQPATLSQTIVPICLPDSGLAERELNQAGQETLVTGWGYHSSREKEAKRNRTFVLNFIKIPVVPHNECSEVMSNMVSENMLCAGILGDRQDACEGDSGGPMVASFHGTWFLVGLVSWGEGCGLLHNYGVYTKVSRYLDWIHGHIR
# T5 sequence (P04070 43-197 partner limits assumed): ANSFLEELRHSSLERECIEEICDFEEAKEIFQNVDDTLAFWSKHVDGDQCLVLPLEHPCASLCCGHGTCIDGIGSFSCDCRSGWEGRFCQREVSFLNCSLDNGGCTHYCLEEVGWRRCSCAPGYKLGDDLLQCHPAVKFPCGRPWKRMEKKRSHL
# Test: Inhibition of human activated protein C (reference enzyme)
# Assay type: biochemical
# Conditions: Pefachrome PCa substrate
# Procedure: as §1, §2, §3
row,Ki,Compound
1,> 50 µM,O=C(NCc1cc(Cl)ccc1-n1cnnn1)[C@@H]1C[C@H](O)CN1C(=O)[C@@H](CCC(=O)N1CCOCC1)NS(=O)(=O)Cc1ccccc1 [Compound 2.21]
2,> 10 µM,NCc1ccc(Cl)cc1CNC(=O)[C@@H]1CCCCN1C(=O)[C@@H](CCC(=O)N1CCOCC1)NS(=O)(=O)Cc1ccccc1 [Compound 2.15]

# Target: T6, human Factor Xa (Homo sapiens, UniProt P00742)
# T6 construct: human Factor Xa from Enzyme Research Laboratories; purchased Enzyme Research Laboratories
# T6 sequence (P00742 235-488 limits assumed): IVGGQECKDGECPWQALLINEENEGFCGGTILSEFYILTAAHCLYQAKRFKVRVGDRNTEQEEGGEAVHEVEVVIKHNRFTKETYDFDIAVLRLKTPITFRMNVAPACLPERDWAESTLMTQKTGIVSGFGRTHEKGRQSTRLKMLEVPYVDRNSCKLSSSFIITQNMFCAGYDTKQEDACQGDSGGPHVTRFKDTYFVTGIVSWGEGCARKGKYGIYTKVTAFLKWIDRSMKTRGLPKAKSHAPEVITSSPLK
# T6 sequence (P00742 41-179 partner limits assumed): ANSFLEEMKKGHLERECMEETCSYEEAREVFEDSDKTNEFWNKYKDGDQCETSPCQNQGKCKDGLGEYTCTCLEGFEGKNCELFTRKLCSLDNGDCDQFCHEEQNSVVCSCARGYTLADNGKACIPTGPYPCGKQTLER
# Test: Inhibition constants for human factor Xa, chromogenic substrate assay
# Assay type: biochemical
# Conditions: 25° C., Pefachrome FXa substrate, average of at least three determinations; read-out: Ki h FXa
# Procedure: as §1, §4, §2
row,Ki,Compound
1,0.0053 µM,O=C(NCc1cc(Cl)ccc1-n1cnnn1)[C@@H]1C[C@H](O)CN1C(=O)[C@@H](CCC(=O)N1CCOCC1)NS(=O)(=O)Cc1ccccc1 [Compound 2.21]
2,0.0094 µM,NCc1ccc(Cl)cc1CNC(=O)[C@@H]1CCCCN1C(=O)[C@@H](CCC(=O)N1CCOCC1)NS(=O)(=O)Cc1ccccc1 [Compound 2.15]

# Target: T7, Subcomponent "r" of Human Complement Component 1 (h C1r) (Homo sapiens, UniProt P00736)
# T7 construct: purchased Calbiochem
# T7 sequence (P00736 464-705 limits assumed): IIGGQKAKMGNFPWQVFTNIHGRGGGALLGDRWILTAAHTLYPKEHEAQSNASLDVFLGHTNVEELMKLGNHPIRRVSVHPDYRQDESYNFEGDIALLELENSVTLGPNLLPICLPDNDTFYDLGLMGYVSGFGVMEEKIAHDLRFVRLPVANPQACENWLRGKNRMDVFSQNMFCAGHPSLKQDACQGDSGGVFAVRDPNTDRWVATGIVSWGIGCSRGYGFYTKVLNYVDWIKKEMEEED
# T7 sequence (P00736 18-463 partner limits assumed): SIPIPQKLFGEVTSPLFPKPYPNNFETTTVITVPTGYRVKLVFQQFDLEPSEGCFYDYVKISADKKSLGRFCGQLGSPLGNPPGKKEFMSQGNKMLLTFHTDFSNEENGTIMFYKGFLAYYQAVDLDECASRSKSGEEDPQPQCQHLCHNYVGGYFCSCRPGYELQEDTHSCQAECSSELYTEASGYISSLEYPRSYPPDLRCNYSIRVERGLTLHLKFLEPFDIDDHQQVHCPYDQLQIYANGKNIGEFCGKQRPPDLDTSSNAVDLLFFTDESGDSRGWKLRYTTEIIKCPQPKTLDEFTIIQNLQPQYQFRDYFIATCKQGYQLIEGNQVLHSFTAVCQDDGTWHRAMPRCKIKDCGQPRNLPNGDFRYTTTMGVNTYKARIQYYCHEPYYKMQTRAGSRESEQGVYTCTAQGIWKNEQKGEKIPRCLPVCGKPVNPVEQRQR
# Test: Inhibition of human C1r (reference enzyme)
# Assay type: biochemical
# Conditions: S-2314 substrate; read-out: Ki h Clr
# Procedure: as §1, §2, §3
row,Ki,Compound
1,> 100 µM,O=C(NCc1cc(Cl)ccc1-n1cnnn1)[C@@H]1C[C@H](O)CN1C(=O)[C@@H](CCC(=O)N1CCOCC1)NS(=O)(=O)Cc1ccccc1 [Compound 2.21]
2,> 20 µM,NCc1ccc(Cl)cc1CNC(=O)[C@@H]1CCCCN1C(=O)[C@@H](CCC(=O)N1CCOCC1)NS(=O)(=O)Cc1ccccc1 [Compound 2.15]

# Target: T8, Subcomponent "s" of Human Complement Component 1 (h C1s) (Homo sapiens, UniProt P09871)
# T8 construct: purchased Calbiochem
# T8 sequence (P09871 438-688 limits assumed): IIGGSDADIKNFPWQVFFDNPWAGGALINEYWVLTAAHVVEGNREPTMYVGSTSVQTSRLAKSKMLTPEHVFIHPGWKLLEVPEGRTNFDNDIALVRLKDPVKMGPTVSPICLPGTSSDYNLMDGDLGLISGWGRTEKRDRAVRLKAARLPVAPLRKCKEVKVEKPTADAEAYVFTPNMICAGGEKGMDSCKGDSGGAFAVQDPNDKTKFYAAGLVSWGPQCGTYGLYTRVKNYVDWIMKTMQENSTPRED
# T8 sequence (P09871 16-437 partner limits assumed): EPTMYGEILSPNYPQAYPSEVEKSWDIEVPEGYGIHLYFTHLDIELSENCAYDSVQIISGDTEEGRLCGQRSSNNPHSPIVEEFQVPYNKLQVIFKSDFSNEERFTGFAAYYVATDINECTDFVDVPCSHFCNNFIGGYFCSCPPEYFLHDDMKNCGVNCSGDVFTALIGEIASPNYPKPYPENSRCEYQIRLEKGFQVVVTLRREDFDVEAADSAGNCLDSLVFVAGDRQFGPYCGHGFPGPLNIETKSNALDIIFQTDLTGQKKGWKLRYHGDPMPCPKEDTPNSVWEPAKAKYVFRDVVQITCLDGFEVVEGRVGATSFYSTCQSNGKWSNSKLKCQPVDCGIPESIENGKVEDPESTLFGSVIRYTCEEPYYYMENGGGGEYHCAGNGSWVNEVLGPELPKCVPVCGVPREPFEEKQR
# Test: Inhibition of human C1s (reference enzyme)
# Assay type: biochemical
# Conditions: S-2314 substrate; read-out: Ki h Cls
# Procedure: as §1, §2, §3
row,Ki,Compound
1,> 50 µM,O=C(NCc1cc(Cl)ccc1-n1cnnn1)[C@@H]1C[C@H](O)CN1C(=O)[C@@H](CCC(=O)N1CCOCC1)NS(=O)(=O)Cc1ccccc1 [Compound 2.21]
2,> 50 µM,NCc1ccc(Cl)cc1CNC(=O)[C@@H]1CCCCN1C(=O)[C@@H](CCC(=O)N1CCOCC1)NS(=O)(=O)Cc1ccccc1 [Compound 2.15]

# Target: T9, Human urokinase type plasminogen activator (h u-PA) (Homo sapiens, UniProt P00749)
# T9 construct: purchased MEDAC GmbH Urokinase HS medac
# Test: Inhibition of human urokinase type plasminogen activator (reference enzyme)
# Assay type: biochemical
# Conditions: H-Glu-Gly-Arg-pNA substrate
# Procedure: as §1, §2, §3
row,Ki,Compound
1,> 100 µM,O=C(NCc1cc(Cl)ccc1-n1cnnn1)[C@@H]1C[C@H](O)CN1C(=O)[C@@H](CCC(=O)N1CCOCC1)NS(=O)(=O)Cc1ccccc1 [Compound 2.21]
2,> 50 µM,NCc1ccc(Cl)cc1CNC(=O)[C@@H]1CCCCN1C(=O)[C@@H](CCC(=O)N1CCOCC1)NS(=O)(=O)Cc1ccccc1 [Compound 2.15]

# Target: T10, Human urinary kallikrein (h uKK) (Homo sapiens, UniProt P06870)
# T10 construct: purchased Lee Biosolutions
# T10 sequence (P06870 25-262): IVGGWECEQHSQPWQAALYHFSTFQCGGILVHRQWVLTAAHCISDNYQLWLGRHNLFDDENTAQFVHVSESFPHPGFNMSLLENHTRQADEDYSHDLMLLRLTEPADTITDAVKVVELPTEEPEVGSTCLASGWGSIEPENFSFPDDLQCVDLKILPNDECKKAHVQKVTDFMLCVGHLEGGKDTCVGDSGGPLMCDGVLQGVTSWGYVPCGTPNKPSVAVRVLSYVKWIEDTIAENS
# Test: Inhibition of human urinary kallikrein (reference enzyme)
# Assay type: biochemical
# Conditions: S-2266 substrate
# Procedure: as §1, §2, §3
row,Ki,Compound
1,> 100 µM,O=C(NCc1cc(Cl)ccc1-n1cnnn1)[C@@H]1C[C@H](O)CN1C(=O)[C@@H](CCC(=O)N1CCOCC1)NS(=O)(=O)Cc1ccccc1 [Compound 2.21]
2,> 10 µM,NCc1ccc(Cl)cc1CNC(=O)[C@@H]1CCCCN1C(=O)[C@@H](CCC(=O)N1CCOCC1)NS(=O)(=O)Cc1ccccc1 [Compound 2.15]
